Data taken from PMC4669708 (Cell Death & Disease, 2015).
pEC50, pIC50: −log10 of the molar value.

Key:
HT-29 MLKL S358D cells = assay: Cell death driven by doxycycline-induced MLKL S358D expression; format: cell-based, human; details: 2 μg/ml doxycycline overnight; 10 μM NSA, 0.5 μM ponatinib
Procedure: (§1) Cells were seeded in 12-, 24- or 96-well plates at proper cell density. For necroptosis or apoptosis assays, cells were incubated with the indicated compound combinations at concentrations stated for 14–24 h. Smac mimetic and z-VAD-FMK were added 30–60 min before treatment with TNF-α, FasL or TRAIL. Cell viability was determined using CellTiter Glo Luminescent Cell Viability Assay (Promega, Fitchburg, WI, USA) according to the manufacturer's instructions. Luminescence was recorded with a SpectraMax M5Multimode plate reader (Molecular Devices, Sunnyvale, CA, USA). For flow cytometry-based determination of viability, cells were harvested, collected by centrifugation, washed once and resuspended in staining buffer (1 × PBS, 10% FBS). Cells were incubated with 0.5 μg/ml PI for 10 min at room temperature (RT) in the dark. Flow cytometric analyses were performed on an LSR Fortessa (BD Biosciences) and analyzed with FlowJo software version 7.6.3 (Tree Star Inc, Ashland, OR, USA). Cell size was evaluated by forward scatter. PI-negative normal-sized cells were considered living and data were normalized to values of untreated controls. For detection of apoptosis, cells were resuspended in Annexin V Binding Buffer (BioLegend, San Diego, CA, USA) and stained with 0.5 μg/ml PI and Alexa Fluor 647 Annexin V (BioLegend) according to manufacturer's instructions.

3T3-SA or L929 cells = assay: Drug toxicity dose-response, Supplementary Figure 3; format: cell-based, murine; details: Mus musculus, read-out: IC50 (printed in Supplementary Figure 3)
Procedure: as §1

HT-29 cells = assay: TNF-α/Smac mimetic/z-VAD-FMK (TSZ)-induced necroptosis, cell viability; format: cell-based, human; details: Homo sapiens, HT-29; TSZ treatment; read-out: EC50 (necroptosis block)
Procedure: as §1, with “controls.” for “controls. For detection of apoptosis, cells were resuspended in Annexin V Binding Buffer (BioLegend, San Diego, CA, USA) and stained with 0.5 μg/ml PI and Alexa Fluor 647 Annexin V (BioLegend) according to manufacturer's instructions.”

[1] = Chemical proteomics, c-ponatinib drug pull-down, LCMS-MS; format: binding, human; details: c-ponatinib matrix, competition with free ponatinib; cells 2 h TNF-α
Procedure: Drug-affinity matrices were prepared as described previously.[51] In brief, 25 nmol of c-ponatinib were immobilized on 50 μl NHS-activated Sepharose 4 Fast Flow beads (GE Healthcare Bio-Sciences AB, Uppsala, Sweden). 10 mg whole cell lysate was used as protein input per replicate. Affinity chromatography and elution were performed in duplicate. After elution, the enriched proteins were reduced with dithiothreitol (DTT) and cysteine residues were alkylated by incubation with iodoacetamide. The samples were digested with modified porcine trypsin (Promega). Five percent of the digested eluates were purified and concentrated by C18 reversed-phase material. Subsequently, samples were analyzed in duplicates by gel-free one-dimensional LCMS.
Precursor and MS/MS peaks were extracted from the RAW files and saved in the MGF format using msconvert tool (ProteoWizard Library v2.1.2708, www.proteowizard.sourceforge.net) for subsequent protein identification. […] The initial peptide identifications were used to deduce independent linear transformations for precursor and fragment masses that would minimize the mean square deviation of measured masses from theoretical. […] A false discovery rate of <1% for protein identifications and <0.1% for peptides (including the ones exported with lower scores) was determined by applying the same procedure against a database of reversed protein sequences. […]

endogenous RIPK3 = target: T1, endogenous RIPK3 (Homo sapiens, UniProt Q9Y572); assay: Cellular thermal shift assay (CETSA); format: cell-based; details: FADD-deficient Jurkat cells, 0.5 μM, 3 h
T1 construct: endogenous in cells; host or cells: FADD-deficient Jurkat I2.1
Procedure: Drug target engagement in cells, causing stabilization of the respective protein, was analyzed essentially as described previously.[55] […] After treatment, cells were collected by centrifugation and resuspended in 1x PBS. The cell suspension was aliquoted into PCR tubes and heated for 3 min at 42, 46, 50, 54, 58 or 62 °C. Subsequently, cells were lysed by three consecutive freeze–thaw cycles using liquid nitrogen. The soluble fraction was separated from precipitated proteins by centrifugation at 13000 r.p.m. and 4 °C for 20 min. The supernatant, containing the soluble proteins, was transferred to a fresh tube and analyzed by immunoblotting.

T1 sequence (Q9Y572 whole entry): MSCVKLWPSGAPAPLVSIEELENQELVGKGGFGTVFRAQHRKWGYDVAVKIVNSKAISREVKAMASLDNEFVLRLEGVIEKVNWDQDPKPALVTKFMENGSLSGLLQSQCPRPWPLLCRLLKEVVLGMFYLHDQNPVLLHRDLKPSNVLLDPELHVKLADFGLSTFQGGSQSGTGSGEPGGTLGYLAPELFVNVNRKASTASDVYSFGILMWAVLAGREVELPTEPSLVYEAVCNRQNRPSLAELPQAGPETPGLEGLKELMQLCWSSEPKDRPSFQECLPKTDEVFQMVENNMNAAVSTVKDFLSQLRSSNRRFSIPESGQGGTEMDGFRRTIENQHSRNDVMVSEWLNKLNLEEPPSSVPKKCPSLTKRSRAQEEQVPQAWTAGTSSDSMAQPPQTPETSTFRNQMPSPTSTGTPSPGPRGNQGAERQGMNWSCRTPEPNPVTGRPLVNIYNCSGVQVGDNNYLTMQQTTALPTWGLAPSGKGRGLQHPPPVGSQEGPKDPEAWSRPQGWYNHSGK

Cc1ccc(C(=O)Nc2ccc(CN3CCN(C)CC3)c(C(F)(F)F)c2)cc1C#Cc1cnc2cccnn12 [ponatinib, Ponatinib]
block of cell death driven by MLKL S358D expression (HT-29 MLKL S358D cells): did not prevent cell death
pIC50 (3T3-SA or L929 cells): 5.96
pEC50 (HT-29 cells): 7.30
kinases identified as specific binders (number) [1]: 38
non-kinase proteins identified as specific binders (number) [1]: 22
RIPK3 thermostability (target engagement) (endogenous RIPK3): led to a shift in the RIPK3 thermostability curve
